Assay results published in patent publication EP2663342B1, “STABLE HYDROGEL COMPOSITIONS INCLUDING PHENYLEPHRINE” (ALLERGAN, INC., priority 2011, dated 2012).

Assays:
Type in all cases: physicochemical
[1] = Extrusion force of HA-based gel at 3 years equivalent at room temperature
Description: (§1) The hydrogel properties, aspect (i.e., color/clarity/homogeneity), and extrusion force were analyzed after autoclaving and at 3 years equivalent at room temperature.

[2] = Extrusion force of HA-based gel after autoclaving; conditions: ΔF vs HA gel without the added ingredients
Source text: Stability of a hydrogel composition disclosed herein can be determined by subjecting a hydrogel composition to a heat treatment, such as, e.g., steam sterilization at normal pressure or under pressure (e.g., autoclaving). […] Substantial stability of a hydrogel composition disclosed herein can be evaluated 1) by determining the change in the extrusion force (ΔF) of a hydrogel composition disclosed herein after sterilization, where the change in extrusion force less 2N is indicative of a substantially stable hydrogel composition as measured by (the extrusion force of a hydrogel composition with the specified additives) minus (the extrusion force of the a hydrogel composition without the added additives); and/or 2) by determining the change in rheological properties of a hydrogel composition disclosed herein after sterilization, where the change in tan δ 1 Hz of less than 0.1 is indicative of a substantially stable hydrogel composition as measured by (tan δ 1 Hz of gel formulation with additives) minus (tan δ 1 Hz of gel formulation without additives). As such, a substantially stable hydrogel composition disclosed herein retains one or more of the following characteristics after sterilization: homogeneousness, extrusion force, cohesiveness, hyaluronan concentration, agent(s) concentration, osmolarity, pH, or other rheological characteristics desired by the hydrogel before the heat treatment.
as §1

[3] = Aspect (color/clarity/homogeneity) of HA-based gel after autoclaving
[4] = as above; conditions: for Aspect: after autoclaving and at 3 years equivalent at room temperature
Description: The active ingredient was incorporated into a HA-based gel matrix and autoclaved by steam sterilization at a temperature between about 130 °C to about 135 °C for between about one minute and about 10 minutes. The hydrogel properties, aspect (i.e., color/clarity/homogeneity), and extrusion force were analyzed after autoclaving and at 3 years equivalent at room temperature. All formulations were clear, homogenous, uncolored, and had acceptable extrusion force properties after autoclaving and at the 3-year equivalent mark (Table 3).
Ascorbic acid, at a concentration of 1% (w/w) was, incorporated in a HA-based gel matrix, and the pH of the gel adjusted to about 7 and then autoclaved by steam sterilization at a temperature between about 130 °C to about 135 °C for between about one minute and about 10 minutes.

[5] = Oxidation testing: degradation by free radicals (H2O2) on a rheometer; conditions: gel with AA2G and lidocaine versus gel with lidocaine
Source text: The effect of ascorbic acid 2-glucoside (AA2G™) on HA-based gel matrix oxidative degradation was studied. Oxidation testing was used as it allows testing of the resistance of a HA-based gel matrix to free radicals. Degradation by free radicals was simulated on a rheometer (Haake Rheostress 600) by addition of 1/7 ratio of H2O2 30% on the surface of a spread gel measured with a controlled stress rheometer according to the following method: frequency of 1 Hz with 0.8% controlled strain, during 3600 s at 35 °C. The time value is taken at 5 Pa/s.

[6] = ingredient at 0.3 % in HA-based gel matrix
[7] = ingredient at 0.5 % in HA-based gel matrix
[8] = ingredient at 1 % in HA-based gel matrix

NC(=O)NC1NC(=O)NC1=O (stereo not drawn) [Allantoin]
Extrusion force (N) 3 years ∼ room T °C [1, 6]: PASSED (the change of extrusion force (ΔF) was less than two Newtons (< 2 N)) | Extrusion force (N) 3 years ∼ room T °C [1, 7]: PASSED (the change of extrusion force (ΔF) was less than two Newtons (< 2 N)) | Extrusion force (N) after autoclaving [2, 6]: PASSED (the change of extrusion force (ΔF) was less than two Newtons (< 2 N)) | Extrusion force (N) after autoclaving [2, 7]: PASSED (the change of extrusion force (ΔF) was less than two Newtons (< 2 N))

O=C1O[C@H]([C@@H](O)CO)C([O-])=C1OP(=O)([O-])[O-].O=C1O[C@H]([C@@H](O)CO)C([O-])=C1OP(=O)([O-])[O-].[Mg+2].[Mg+2].[Mg+2] [Magnesium Ascorbyl Phosphate]
aspect of gel after autoclaving ([3]; 0.6% (w/w), 1% (w/w) or 2% (w/w) MAP in HA-based gel matrix, pH about 7, same before autoclaving): clear and uncolored

OCC(O)CO [Glycerin]
Extrusion force (N) 3 years ∼ room T °C [1, 7]: PASSED (the change of extrusion force (ΔF) was less than two Newtons (< 2 N)) | Extrusion force (N) after autoclaving [2, 7]: PASSED (the change of extrusion force (ΔF) was less than two Newtons (< 2 N))

O=C1O[C@H]([C@@H](O)CO)C(O)=C1O [Ascorbic acid, (5R)-[(1S)-1,2-dihydroxyethyl]-3,4-dihydroxyfuran-2(5H)-one]
aspect of gel after autoclaving ([4]; 1% (w/w) in HA-based gel matrix, pH about 7, clear and uncolored before autoclaving): clear but yellowed

O=C1O[C@H]([C@@H](O)CO)C(O)=C1O[C@H]1O[C@H](CO)[C@@H](O)[C@H](O)[C@H]1O [Ascorbic acid 2-Glucoside]
aspect of gel after autoclaving ([3]; 0.6% (w/w), 1% (w/w), or 2% (w/w) AA2G in HA-based gel matrix, pH about 7, same before autoclaving): clear and uncolored | protected against oxidative degradation by a factor [5]: 3

c1ccc2c(CC3=NCCN3)cccc2c1 [Naphazoline, 2-(1-naphthylmethyl)-2-imidazoline]
aspect of gel after autoclaving ([3]; 100 ppm naphazoline in HA-based gel matrix comprising 0.3% (w/w) lidocaine, same before autoclaving): clear and uncolored

CNC[C@H](O)c1ccc(O)c(O)c1 [Epinephrine bitartrate]
aspect of gel after autoclaving ([3]; 10 ppm in HA-based gel matrix comprising 0.3% (w/w) lidocaine, clear and uncolored before autoclaving): clear but colored | aspect of gel after autoclaving ([3]; 10 ppm in HA-based gel matrix, same before autoclaving): clear and uncolored | aspect of gel after autoclaving ([3]; 20 ppm in HA-based gel matrix comprising 0.3% (w/w) lidocaine and 4.5% (w/w) mannitol, clear and uncolored before autoclaving): slightly colored

CNCC(O)c1ccc(O)cc1 (stereo not drawn) [Synephrine, 4-[1-hydroxy-2-(methylamino)ethyl]phenol]
aspect of gel after autoclaving ([3]; 100 ppm synephrine in HA-based gel matrix comprising 0.3% (w/w) lidocaine, same before autoclaving): clear and uncolored

CNC[C@H](O)c1cccc(O)c1 [Phenylephrine, (R)-3-[-1-hydroxy-2-(methylamino)ethyl]phenol]
aspect of gels after autoclaving ([3]; 100 ppm or 400ppm phenylephrine in HA-based gel matrixes comprising 0.3% (w/w) lidocaine, same before autoclaving): clear and uncolored

O=c1ccn([C@@H]2O[C@H](CO)[C@@H](O)[C@H]2O)c(=O)[nH]1 [Uridine]
Aspect [4, 7]: Clear Homogeneous Uncolored | Aspect [4, 8]: Clear Homogeneous Uncolored | Extrusion force (N) 3 years ∼ room T °C [1, 7]: PASSED (the change of extrusion force (ΔF) was less than two Newtons (< 2 N)) | Extrusion force (N) 3 years ∼ room T °C [1, 8]: PASSED (the change of extrusion force (ΔF) was less than two Newtons (< 2 N)) | Extrusion force (N) after autoclaving [2, 7]: PASSED (the change of extrusion force (ΔF) was less than two Newtons (< 2 N)) | Extrusion force (N) after autoclaving [2, 8]: PASSED (the change of extrusion force (ΔF) was less than two Newtons (< 2 N))

Cc1c(C)c2c(c(C)c1OP(=O)([O-])[O-])CCC(C)(CCCC(C)CCCC(C)CCCC(C)C)O2.[Na+].[Na+] (stereo not drawn) [Sodium Tocopheryl Phosphate]
aspect of gel after autoclaving ([3]; 0.4% (w/w) or 1.2% (w/w) in HA-based gel matrix): unclear and white

O=C1O[C@H]([C@@H](O)CO)C([O-])=C1OP(=O)([O-])[O-].[Na+].[Na+].[Na+] [Sodium Ascorbyl Phosphate]
aspect of gel after autoclaving ([3]; 0.6% (w/w), 1% (w/w), or 2% (w/w) SAP in HA-based gel matrix, pH about 7, same before autoclaving): clear and uncolored

CNC[C@H](O)c1ccc(O)c(O)c1 [Epinephrine, (R)-4-(1-hydroxy-2-(methylamino)ethyl)benzene-1,2-diol]
aspect of gel after autoclaving ([3]; 10 ppm in HA-based gel matrix with 0.9% (w/w) mannitol): slightly colored | aspect of gel after autoclaving ([3]; 10 ppm in HA-based gel matrix with 4.5% (w/w) mannitol, same before autoclaving): clear and uncolored

Cc1cc(=O)n(-c2ccccc2)n1C [Antipyrin, reference compound]
Aspect [4, 7]: Clear Homogeneous Uncolored | Aspect [4, 8]: Clear Homogeneous Uncolored | Extrusion force (N) 3 years ∼ room T °C [1, 7]: PASSED (the change of extrusion force (ΔF) was less than two Newtons (< 2 N)) | Extrusion force (N) 3 years ∼ room T °C [1, 8]: PASSED (the change of extrusion force (ΔF) was less than two Newtons (< 2 N)) | Extrusion force (N) after autoclaving [2, 7]: PASSED (the change of extrusion force (ΔF) was less than two Newtons (< 2 N)) | Extrusion force (N) after autoclaving [2, 8]: PASSED (the change of extrusion force (ΔF) was less than two Newtons (< 2 N))

CC(C)(CO)[C@@H](O)C(=O)NCCCO [Dexpanthenol]
aspect of gel after autoclaving ([3]; 1% (w/w) in HA-based gel matrix comprising 0.3% (w/w) lidocaine, same before autoclaving): clear and uncolored

Cc1cn([C@H]2C[C@H](O)[C@@H](CO)O2)c(=O)[nH]c1=O [Thymidine]
Extrusion force (N) 3 years ∼ room T °C [1, 7]: PASSED (the change of extrusion force (ΔF) was less than two Newtons (< 2 N)) | Extrusion force (N) 3 years ∼ room T °C [1, 8]: PASSED (the change of extrusion force (ΔF) was less than two Newtons (< 2 N)) | Extrusion force (N) after autoclaving [2, 7]: PASSED (the change of extrusion force (ΔF) was less than two Newtons (< 2 N)) | Extrusion force (N) after autoclaving [2, 8]: PASSED (the change of extrusion force (ΔF) was less than two Newtons (< 2 N))

NC[C@H]1CC[C@H](C(=O)O)CC1 [Tranexamic acid, reference compound]
aspect of gel after autoclaving ([3]; 0.4% (w/w) tranexamic acid in HA-based gel matrix comprising 0.3% (w/w) lidocaine, same before autoclaving): clear and uncolored | Extrusion force (N) 3 years ∼ room T °C [1, 7]: PASSED (the change of extrusion force (ΔF) was less than two Newtons (< 2 N)) | Extrusion force (N) after autoclaving [2, 7]: PASSED (the change of extrusion force (ΔF) was less than two Newtons (< 2 N))

Nc1ccn([C@@H]2O[C@H](CO)[C@@H](O)[C@H]2O)c(=O)n1 [Cytidine]
Extrusion force (N) 3 years ∼ room T °C [1, 7]: PASSED (the change of extrusion force (ΔF) was less than two Newtons (< 2 N)) | Extrusion force (N) 3 years ∼ room T °C [1, 8]: PASSED (the change of extrusion force (ΔF) was less than two Newtons (< 2 N)) | Extrusion force (N) after autoclaving [2, 7]: PASSED (the change of extrusion force (ΔF) was less than two Newtons (< 2 N)) | Extrusion force (N) after autoclaving [2, 8]: PASSED (the change of extrusion force (ΔF) was less than two Newtons (< 2 N))

CC(=O)Oc1c(C)c(C)c2c(c1C)CCC(C)(CCC[C@H](C)CCC[C@H](C)CCCC(C)C)O2 (stereo partly drawn) [Tocopheryl Acetate]
aspect of gel after autoclaving ([3]; 0.5% (w/w) or 1.2% (w/w) in HA-based gel matrix): unclear and white

CC12CCC(CC1)C(C)(C)O2 [Eucalyptol]
Extrusion force (N) 3 years ∼ room T °C [1, 7]: PASSED (the change of extrusion force (ΔF) was less than two Newtons (< 2 N)) | Extrusion force (N) after autoclaving [2, 7]: PASSED (the change of extrusion force (ΔF) was less than two Newtons (< 2 N))

Polyoxyethanyl-α-tocopheryl sebacate
aspect of gel after autoclaving ([3]; 0.7% (w/w) in HA-based gel matrix): clear, but heterogeneous
